Here are results for nine compounds from ChEMBL document CHEMBL5154648, “Antitumor activity of novel POLA1-HDAC11 dual inhibitors” (Eur J Med Chem, 2022).

Activity calls are given as the source filed them. The calls are words filed in the database; no cut-off is given here.

Experiment [1] concerns NCI-H460. Nature of the experiment: Antiproliferative activity against human NCI-H460 cells incubated for 24 hrs followed by incubating in drug-free medium for 48 hrs and measured by SRB assay. The experiment is classed as functional, cell-based.
The nature of experiment [2]: Resistance index, ratio of IC50 for human NCI-H460 cells to IC50 for H460-R9A cells. The experiment is classed as functional.
Experiment [3] is described as follows: Antiproliferative activity against human H460-R9A cells incubated for 24 hrs followed by incubating in drug-free medium for 48 hrs and measured by SRB assay. The experiment is classed as functional, cell-based. Background: The SRB assay estimates cell density from bound dye.
Experiment [4] can be described thus: Antiproliferative activity against multi-drug resistant human A2780-DX cells incubated for 24 hrs followed by incubating in drug-free medium for 48 hrs and measured by SRB assay. The experiment is classed as functional, cell-based.
A short description of experiment [5]: Resistance index, ratio of IC50 for human A2780 cells to IC50 for A2780-DX cells. The experiment is classed as functional.
The subject of experiment [6] is A2780. Nature of the experiment: Antiproliferative activity against human A2780 cells incubated for 24 hrs followed by incubating in drug-free medium for 48 hrs and measured by SRB assay. The experiment is classed as functional, cell-based.
In experiment [7] the test system is NCI-H460. Nature of the experiment: Induction of cell cycle arrest in human NCI-H460 cells assessed as accumulation of cells at sub-G1 phase at 4.2 uM after 72 hrs by flow cytometry (reference value: 1.1%). The experiment is classed as functional. (In general: In flow cytometry, cells or beads pass a laser one at a time.)
A short description of experiment [8]: Induction of cell cycle arrest in human H460-R9A cells assessed as accumulation of cells at G0/1 phase at 1.9 uM after 72 hrs by flow cytometry (reference value: 50.1%). The experiment is classed as functional.
The nature of experiment [9]: Induction of cell cycle arrest in human H460-R9A cells assessed as accumulation of cells at sub-G1 phase at 1.9 uM after 72 hrs by flow cytometry (reference value: 1.5%). The experiment is classed as functional.
Experiment [10] concerns NCI-H460. Nature of the experiment: Induction of cell cycle arrest in human NCI-H460 cells assessed as accumulation of cells at S phase at 4.2 uM after 72 hrs by flow cytometry (reference value: 32.1%). The experiment is classed as functional.
Experiment [11] concerns NCI-H460. Nature of the experiment: Antiproliferative activity against human NCI-H460 cells at 7.4 uM assessed as reduction in PIN1 level and measured by Western blot analysis. The experiment is classed as functional, cell-based. (Immunoblotting shows a protein as a band on a membrane.)
The nature of experiment [12]: Induction of cell cycle arrest in human H460-R9A cells assessed as accumulation of cells at G2/M phase at 1.9 uM after 72 hrs by flow cytometry (reference value: 15.4%). The experiment is classed as functional.
Experiment [13] has as its system NCI-H460. Nature of the experiment: Antiproliferative activity against human NCI-H460 cells at 7.4 uM assessed as reduction in p-ERK1/2 level and measured by Western blot analysis. The experiment is classed as functional, cell-based.
Experiment [14] relates to NCI-H460. Kind of experiment: Induction of cell cycle arrest in human NCI-H460 cells assessed as accumulation of cells at G2/M phase at 4.2 uM after 72 hrs by flow cytometry (reference value: 21.1%). The experiment is classed as functional.
Experiment [15] deals with T1, DNA polymerase alpha catalytic subunit (Homo sapiens) (UniProt P09884).
T1 sequence (whole entry): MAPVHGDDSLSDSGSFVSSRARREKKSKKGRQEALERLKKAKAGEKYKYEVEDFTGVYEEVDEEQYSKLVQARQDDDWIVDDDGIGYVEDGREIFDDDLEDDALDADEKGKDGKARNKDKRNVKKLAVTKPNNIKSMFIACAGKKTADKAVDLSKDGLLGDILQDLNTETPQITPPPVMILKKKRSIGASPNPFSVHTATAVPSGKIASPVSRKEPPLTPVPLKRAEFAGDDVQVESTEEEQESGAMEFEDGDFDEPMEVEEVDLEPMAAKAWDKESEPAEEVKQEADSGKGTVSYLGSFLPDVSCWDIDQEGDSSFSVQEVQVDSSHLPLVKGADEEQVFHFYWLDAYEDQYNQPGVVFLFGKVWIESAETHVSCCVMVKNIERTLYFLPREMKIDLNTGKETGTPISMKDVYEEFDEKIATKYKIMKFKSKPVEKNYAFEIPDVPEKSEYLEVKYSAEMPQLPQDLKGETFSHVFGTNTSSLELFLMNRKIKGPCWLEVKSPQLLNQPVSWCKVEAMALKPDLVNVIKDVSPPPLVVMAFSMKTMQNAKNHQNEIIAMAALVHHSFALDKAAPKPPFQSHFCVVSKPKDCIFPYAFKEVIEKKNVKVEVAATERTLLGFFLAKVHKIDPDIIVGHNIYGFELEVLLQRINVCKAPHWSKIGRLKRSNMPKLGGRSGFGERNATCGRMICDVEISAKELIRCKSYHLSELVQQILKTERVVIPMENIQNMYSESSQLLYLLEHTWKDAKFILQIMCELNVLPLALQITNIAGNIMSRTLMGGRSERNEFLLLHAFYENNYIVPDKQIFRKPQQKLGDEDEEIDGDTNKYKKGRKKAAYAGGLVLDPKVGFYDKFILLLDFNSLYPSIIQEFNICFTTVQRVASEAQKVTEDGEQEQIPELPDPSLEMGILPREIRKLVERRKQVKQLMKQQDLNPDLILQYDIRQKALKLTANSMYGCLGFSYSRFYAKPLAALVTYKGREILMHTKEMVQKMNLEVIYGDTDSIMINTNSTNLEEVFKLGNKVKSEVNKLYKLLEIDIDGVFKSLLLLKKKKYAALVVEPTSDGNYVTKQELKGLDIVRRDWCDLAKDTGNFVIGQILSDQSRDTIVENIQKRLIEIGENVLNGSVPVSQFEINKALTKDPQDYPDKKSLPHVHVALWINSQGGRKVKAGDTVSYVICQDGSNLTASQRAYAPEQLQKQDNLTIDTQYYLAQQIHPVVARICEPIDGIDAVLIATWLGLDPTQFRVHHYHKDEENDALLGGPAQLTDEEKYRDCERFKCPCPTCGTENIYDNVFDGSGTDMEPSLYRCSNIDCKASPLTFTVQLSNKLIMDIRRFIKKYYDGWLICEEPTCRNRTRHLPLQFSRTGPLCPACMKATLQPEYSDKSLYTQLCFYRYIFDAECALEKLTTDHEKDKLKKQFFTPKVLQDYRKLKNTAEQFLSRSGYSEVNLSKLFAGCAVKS
Nature of the experiment: Inhibition of POLA1 in human NCI-H460 cells at 7.4 uM assessed as upregulation of p21 expression and measured by Western blot analysis. The experiment is classed as cell-based.

Experiment [16] has as its system NCI-H460. Kind of experiment: Induction of DNA damage in human NCI-H460 cells at 7.4 uM assessed as increase in p-H2AX levels and measured by Western blot analysis. The experiment is classed as functional, cell-based.
Experiment [17] can be described thus: Induction of cell cycle arrest in human H460-R9A cells assessed as accumulation of cells at S phase at 1.9 uM after 72 hrs by flow cytometry (reference value: 34.5%). The experiment is classed as functional.
In experiment [18] the test system is L-428. Kind of experiment: Antiproliferative activity against human L-428 cells incubated for 24 hrs followed by incubating in drug-free medium for 48 hrs and measured by SRB assay. The experiment is classed as functional, cell-based.
Experiment [19] deals with NCI-H460. Kind of experiment: Induction of cell cycle arrest in human NCI-H460 cells assessed as accumulation of cells at G0/1 phase at 4.2 uM after 72 hrs by flow cytometry (reference value: 46.8%). The experiment is classed as functional.
Experiment [20] relates to H460-R9A. Kind of experiment: Antiproliferative activity against human H460-R9A cells at 3.75 to 60 uM after 72 hrs by MTT assay. The experiment is classed as functional, cell-based. Conditions: dose 3.75-60 µM.

For orientation: IC50 means the concentration that gives 50% inhibition. For `CC(C)(Oc1ccc(-c2ccc(C=CC(=O)O)cc2)cc1C12CC3CC(CC(C3)C1)C2)C(=O)NO`, the values for the IC50 in [1] and in experiment [3] were 1.3 µM and 7.3 µM, respectively. Further, in experiment [2], the “Ratio IC50” value came to 5.6.
Regarding `O=C(O)C=Cc1ccc(-c2ccc(OCCCC(=O)NO)c(C34CC5CC(CC(C5)C3)C4)c2)cc1`, the IC50 came to 3.9 µM in experiment [4], 1.7 µM in experiment [1], 4.2 µM in [6] and 8.3 µM in experiment [3]. The entries for the “Ratio IC50” value in [5] and in [2] were 0.9 and 4.9, respectively.
On to `O=C(O)C=Cc1ccc(-c2ccc(OCCC(=O)O)c(C34CC5CC(CC(C5)C3)C4)c2)cc1`, for which the IC50 in experiment [4] was 23.8 µM; in experiment [1], 10 µM; in [6] it was 10 µM; in experiment [3], above 10 µM. In [5], the “Ratio IC50” value is given as 2.38.
Turning to `O=C(O)C=Cc1ccc(-c2ccc(OCC(=O)O)c(C34CC5CC(CC(C5)C3)C4)c2)cc1`, the IC50 in experiment [1] and in [3] was above 10 µM throughout.
On to `O=C(O)C=Cc1ccc(-c2ccc(OCCC(=O)NO)c(C34CC5CC(CC(C5)C3)C4)c2)cc1`, for which the IC50 came out at 8.3 µM in experiment [1] and 10.6 µM in [3]. Further, the “Ratio IC50” value in experiment [2] was found to be 1.3.
`O=C(CCCCCCC(=O)Nc1ccccc1)NO` [VORINOSTAT]: the Activity is 1.8% in [7]; 62.2% in experiment [8]; 2.1% in experiment [9]; 11.7% in experiment [10]; 21% in experiment [12]; 23.1% in experiment [14]. For the same compound, the Activity is given as 14.7% in [17] and 65.2% in experiment [19]. For the same compound, the outcome in experiment [11], in experiment [13] and in [16] was Active. In addition, the values for the IC50 in [4] and in [18] were 33 µM and 2.3 µM, respectively. Besides, the inhibition entry in [15] was “Active”.
With `O=C(O)C=Cc1ccc(-c2ccc(OCCCCCCCC(=O)NO)c(C34CC5CC(CC(C5)C3)C4)c2)cc1`, the IC50 in experiment [1] came out at 5.5 µM; in [3] it was 9.6 µM. Further, in experiment [2], the “Ratio IC50” value turned out to be 1.7.
For the compound `CCCCCCCCCCCCCCCCNNC(=O)c1cccs1`, the result in [20] was Active.
In the case of `O=C(O)C=Cc1ccc(-c2ccc(OCCCCC(=O)NO)c(C34CC5CC(CC(C5)C3)C4)c2)cc1`, the IC50 is 6.4 µM in experiment [4], 1.9 µM in experiment [1], 3.6 µM in experiment [6] and 8.6 µM in experiment [3]. The “Ratio IC50” value was 1.7 in experiment [5] and 4.5 in experiment [2].
